Test results published in US4153709A, “N-Heterocyclic ureas as immune regulants” (Eli Lilly and Company, priority 1977, dated 1979).

Tested on: antibody response to sheep blood cells (hemaglutination titer)
Assay: Immune regulating test: suppression of hemaglutination titer by 4-fold factor in mice (i.p. drug, i.p. sheep blood cells), Tables 1-15
Assay type: in vivo, Swiss mice
Conditions: Mus musculus, ip, 192 h, × 3, intraperitoneal, minimum dose to suppress the hemaglutination titer by a 4-fold factor, 8 days after antigen, read-out: Immuno-Suppressant ED4-Fold
Method: The ability of compounds according to the above formulas to alter immune mechanisms in a host animal was measured by their activity according to the following test. Groups of five 20-gram Swiss mice were injected intraperitoneally with standardized suspensions of an antigen--in this instance sheep blook cells. […] Eight days after injection of the antigen, the mice were bled and the sera from each group pooled. Antibody determinations were made on the serum pools by a hemaglutination pattern procedure and comparisons made between treated and control animals. In Tables 1-18 which follow, the activity of the compounds listed therein is given in terms of the minimum dose of drug necessary to suppress the hemaglutination titer by a 4-fold factor in the treated mice as compared with control titers.

`Cc1ccc(NC(=O)Nc2nc3ccccc3s2)cc1` [Table 11: p-tolyl, H, S] showed a minimal effective dose of 100 mg/kg.

With `O=C(Nc1ccccc1)Nc1nc2c(ccc3ccccc32)s1` [Table 14: phenyl] the minimal effective dose was less than 12.5 mg/kg.

Compound `O=C(Nc1ccc(F)cc1)Nc1nc2cc3ccccc3cc2[nH]1` [Table 9: p-fluorophenyl] has a minimal effective dose greater than 25 mg/kg.

`O=C(Nc1nc2ccccc2s1)Nc1cc(Cl)ccc1Cl` [Table 11: 2,5-dichlorophenyl, H, S] gave a minimal effective dose of 12.5 mg/kg.

`O=C(Nc1ccccc1)Nc1nc2cc(C(F)(F)F)ccc2[nH]1` [Table 4: phenyl, CF3] gave a minimal effective dose of 12.5 mg/kg.

Work on `CN(C(=O)Nc1cccc(Cl)c1)c1nc2ccccc2[nH]1` [Table 7: m-chlorophenyl, H] yielded a minimal effective dose of 25 mg/kg.

Work on `O=C(Nc1cccc(Cl)c1)Nc1nc2cc(Cl)ccc2o1` [Table 11: m-chlorophenyl, 5-Cl, O] yielded a minimal effective dose of 400 mg/kg.

In the case of `Cc1cc2nc(NC(=O)Nc3cccc(C(F)(F)F)c3)sc2cc1C`, the minimal effective dose is reported as 25 mg/kg.

Work on `Cc1ccc(NC(=O)Nc2nc3ccccc3[nH]2)cc1` [Table 1: p-tolyl, H] yielded a minimal effective dose of 6.2 mg/kg.

In the case of `O=C(Nc1cccc(C(F)(F)F)c1)Nc1nc2c(ccc3ccccc32)s1` [Table 14: m-trifluoromethylphenyl], the minimal effective dose is reported as less than 6.2 mg/kg.

`O=C(Nc1cccc(Cl)c1)Nc1nc2c(Cl)cccc2s1` [Table 11: m-chlorophenyl, 4-Cl, S] showed a minimal effective dose of less than 50 mg/kg.

For `O=C(Nc1nc2ccc3ccccc3c2s1)Nc1cccc2ccccc12` [Table 15: α-naphthyl], the minimal effective dose was 0.4 mg/kg.

For `O=C(Nc1ccccc1)Nc1nc2ccccc2o1` [Table 11: phenyl, H, O], the minimal effective dose was 50 mg/kg.

`Cc1cc2nc(NC(=O)Nc3ccc(Cl)c(Cl)c3)sc2cc1C` was tested, and the minimal effective dose was 50 mg/kg.

`CCOC(=O)c1ccc2[nH]c(NC(=O)Nc3ccccc3Cl)nc2c1` [Table 3: o-chlorophenyl] was tested, and the minimal effective dose was 0.4 mg/kg.

`Cc1cc2nc(NC(=O)Nc3ccccc3)sc2cc1C` [Table 11: phenyl, 5,6-dimethyl, S] showed a minimal effective dose of 100 mg/kg.

`O=C(Nc1ccc(Cl)c(Cl)c1)Nc1nc2ccccc2s1` [Table 11: 3,4-dichlorophenyl, H, S] showed a minimal effective dose of 12.5 mg/kg.

`O=C(Nc1nc2c(s1)CCCC2)Nc1cccc2ccccc12` [Table 13: α-naphthyl] showed a minimal effective dose of less than 50 mg/kg.

`CN(C(=O)Nc1cccc2ccccc12)c1nc2ccccc2s1` [Table 12: α-naphthyl] gave a minimal effective dose of 50 mg/kg.

With `COc1ccc2nc(NC(=O)Nc3ccc(C)cc3)sc2c1` [Table 11: p-tolyl, 6-CH3 O, S] the minimal effective dose was less than 100 mg/kg.

`O=C(Nc1cccc2ccccc12)Nc1nc2ccccc2n1-c1ccccc1` [Table 8: α-naphthyl, phenyl] showed a minimal effective dose of 100 mg/kg.

`O=C(Nc1ccc(F)cc1)Nc1nc2cc(Cl)ccc2[nH]1` [Table 2: p-fluorophenyl] showed a minimal effective dose of less than 12.5 mg/kg.

For `COc1ccc2nc(NC(=O)Nc3ccccc3Cl)sc2c1` [Table 11: o-chlorophenyl, 6-CH3 O, S], the minimal effective dose was less than 50 mg/kg.

In the case of `COc1ccc2nc(NC(=O)Nc3cccc4ccccc34)sc2c1` [Table 11: α-naphthyl, 6-CH3 O, S], the minimal effective dose is reported as less than 50 mg/kg.

`O=C(Nc1ccccc1)Nc1nc2c([N+](=O)[O-])cccc2[nH]1` [Table 6: 4(7), phenyl] was tested, and the minimal effective dose was 25 mg/kg.

For `Cc1cc2nc(NC(=O)Nc3ccc(Cl)cc3)sc2cc1C`, the minimal effective dose was 25 mg/kg.

With `CCOC(=O)c1ccc2[nH]c(NC(=O)Nc3cccc4ccccc34)nc2c1` [Table 3: α-naphthyl] the minimal effective dose was 6.2 mg/kg.

`Cc1ccccc1NC(=O)Nc1nc2ccccc2[nH]1` [Table 1: o-tolyl, H] was tested, and the minimal effective dose was 25 mg/kg.

With `CN(C(=O)Nc1ccccc1)c1nc2ccccc2[nH]1` [Table 7: phenyl, H] the minimal effective dose was 50 mg/kg.

In the case of `COc1ccc(NC(=O)Nc2nc3ccccc3s2)cc1` [Table 11: p-anisyl, H, S], the minimal effective dose is reported as 50 mg/kg.

`O=C(Nc1nc2ccccc2s1)Nc1ccccc1Cl` [Table 11: o-chlorophenyl, H, S] showed a minimal effective dose of less than 50 mg/kg.

Compound `Cc1cc2nc(NC(=O)Nc3ccc(Cl)cc3)[nH]c2cc1C` [Table 5: p-chlorophenyl, CH3, CH3] has a minimal effective dose of 12.5 mg/kg.

For `O=C(Nc1nc2c(ccc3ccccc32)s1)Nc1cccc2ccccc12` [Table 14: α-naphthyl], the minimal effective dose was 3.1 mg/kg.

In the case of `O=C(Nc1nc2cc(Cl)ccc2[nH]1)Nc1ccccc1Cl` [Table 2: o-chlorophenyl], the minimal effective dose is reported as 100 mg/kg.

Work on `Cc1cc2nc(NC(=O)Nc3ccccc3F)[nH]c2cc1C` [Table 5: o-fluorophenyl, CH3, CH3] yielded a minimal effective dose of 100 mg/kg.

Work on `O=C(Nc1nc2cc(C(F)(F)F)ccc2[nH]1)Nc1cccc2ccccc12` [Table 4: α-naphthyl, CF3] yielded a minimal effective dose of less than 50 mg/kg.

Compound `Cc1cc2nc(NC(=O)Nc3ccccc3Cl)sc2cc1C` has a minimal effective dose of less than 100 mg/kg.

Compound `Cc1ccccc1NC(=O)Nc1nc2ccccc2s1` [Table 11: o-tolyl, H, S] has a minimal effective dose of less than 50 mg/kg.

`O=C(Nc1nc2ccccc2[nH]1)Nc1ccccc1Cl` [Table 1: o-chlorophenyl, H] gave a minimal effective dose of 12.5 mg/kg.

For `Cn1c(NC(=O)Nc2cccc3ccccc23)nc2ccccc21` [Table 8: α-naphthyl, methyl], the minimal effective dose was greater than 50 mg/kg.

`COc1ccc2nc(NC(=O)Nc3ccc(Cl)cc3)sc2c1` [Table 11: p-chlorophenyl, 6-CH3 O, S] gave a minimal effective dose of less than 50 mg/kg.

With `CCOC(=O)c1ccc2[nH]c(NC(=O)Nc3ccccc3)nc2c1` [Table 3: phenyl] the minimal effective dose was less than 25 mg/kg.

For `COc1ccc2nc(NC(=O)Nc3ccc(Br)cc3)sc2c1` [Table 11: p-bromophenyl, 6-CH3 O, S], the minimal effective dose was 100 mg/kg.

With `O=C(Nc1nc2cc(Cl)ccc2[nH]1)Nc1ccccc1F` [Table 2: o-fluorophenyl] the minimal effective dose was less than 100 mg/kg.

In the case of `O=C(Nc1nc2c(ccc3ccccc32)s1)Nc1cc(Cl)ccc1Cl` [Table 14: 2,5-dichlorophenyl], the minimal effective dose is reported as 100 mg/kg.

`O=C(Nc1ccccc1)Nc1nc2c(Cl)cccc2s1` [Table 11: phenyl, 4-Cl, S] was tested, and the minimal effective dose was less than 12.5 mg/kg.

Work on `O=C(Nc1cccc(C(F)(F)F)c1)Nc1nc2ccccc2s1` [Table 11: m-trifluoromethylphenyl, H, S] yielded a minimal effective dose of less than 50 mg/kg.

`Cc1cc2nc(NC(=O)Nc3ccccc3C)sc2cc1C` [Table 11: o-tolyl, 5,6-dimethyl, S] showed a minimal effective dose of less than 25 mg/kg.

Compound `Cc1cc2nc(NC(=O)Nc3cccc(Cl)c3)sc2cc1C` has a minimal effective dose of 100 mg/kg.

With `Cc1cccc(NC(=O)Nc2nc3cc(C)c(C)cc3[nH]2)c1` [Table 5: m-tolyl, CH3, CH3] the minimal effective dose was 12.5 mg/kg.

`Cn1c(NC(=O)Nc2ccccc2)nc2ccccc21` [Table 8: phenyl, methyl] gave a minimal effective dose of 3.1 mg/kg.

Compound `O=C(Nc1ccc(F)cc1)Nc1nc2ccccc2s1` [Table 11: p-fluorophenyl, H, S] has a minimal effective dose of less than 25 mg/kg.

Work on `Cc1cc2nc(NC(=O)Nc3cccc(Cl)c3)[nH]c2cc1C` [Table 5: m-chlorophenyl, CH3, CH3] yielded a minimal effective dose of 800 mg/kg.

`O=C(Nc1ccccc1)Nc1nc2c(ccc3ccccc32)[nH]1` [Table 10: phenyl] was tested, and the minimal effective dose was 50 mg/kg.

Work on `CN(C(=O)Nc1ccc(Cl)cc1)c1nc2ccccc2s1` [Table 12: p-chlorophenyl] yielded a minimal effective dose of less than 50 mg/kg.

`O=C(Nc1ccc(F)cc1)Nc1nc2c(ccc3ccccc32)[nH]1` [Table 10: p-fluorophenyl] showed a minimal effective dose of 25 mg/kg.

In the case of `O=C(Nc1nc2c(ccc3ccccc32)s1)Nc1ccccc1F` [Table 14: o-fluorophenyl], the minimal effective dose is reported as 3.1 mg/kg.
